Results reported in ChEMBL document CHEMBL1153217, “Antitubercular potential of some semisynthetic analogues of phytol” (Bioorg Med Chem Lett, 2010).
Values after ≈ are worked out from the molar mass of the structure shown. Active and inactive are the calls of the source. The rule behind the calls is not given here.

How the values were obtained:
[1] = tested on: Mycobacterium tuberculosis; assay: Antitubercular activity against Mycobacterium tuberculosis H37Rv by BACTEC460 radiometric susceptibility assay; type: functional
Mus musculus [2] = assay: Toxicity in Swiss albino mouse assessed as total WBC level 5 mg/kg, po (reference value: 10.71 +/- 2.47 thousand/mm'3); type: organism-based; design: dose 5 mg/kg, route oral; conditions: in vivo
Mus musculus [3] = assay: Toxicity in Swiss albino mouse assessed as total serum total cholesterol level 50 mg/kg, po (reference value: 43.25 +/- 4.04 mg/dl); type: organism-based; design: dose 50 mg/kg, route oral; conditions: in vivo
Mus musculus [4] = assay: Toxicity in Swiss albino mouse assessed as total WBC level 300 mg/kg, po (reference value: 10.71 +/- 2.47 thousand/mm'3); type: organism-based; design: dose 300 mg/kg, route oral; conditions: in vivo
Mus musculus [5] = assay: Toxicity in Swiss albino mouse assessed as total WBC level 50 mg/kg, po (reference value: 10.71 +/- 2.47 thousand/mm'3); type: organism-based; design: dose 50 mg/kg, route oral; conditions: in vivo
Mus musculus [6] = assay: Toxicity in Swiss albino mouse assessed as total RBC count 300 mg/kg, po (reference value: 6.24 +/- 0.51 millions/mm'3); type: organism-based; design: dose 300 mg/kg, route oral; conditions: in vivo
Mus musculus [7] = assay: Toxicity in Swiss albino mouse assessed as total serum total cholesterol level 300 mg/kg, po (reference value: 43.25 +/- 4.04 mg/dl); type: organism-based; design: dose 300 mg/kg, route oral; conditions: in vivo
Mus musculus [8] = assay: Toxicity in Swiss albino mouse assessed as total SGPT level 50 mg/kg, po (reference value: 8.13 +/- 0.79 U/L); type: organism-based; design: dose 50 mg/kg, route oral; conditions: in vivo
Mus musculus [9] = assay: Toxicity in Swiss albino mouse assessed as total SGPT level 300 mg/kg, po (reference value: 8.13 +/- 0.79U/L); type: organism-based; design: dose 300 mg/kg, route oral; conditions: in vivo
Mus musculus [10] = assay: Toxicity in Swiss albino mouse assessed as total haemoglobin level 5 mg/kg, po (reference value: 7.54 +/- 1.05 g/dl); type: organism-based; design: dose 5 mg/kg, route oral; conditions: in vivo
Mus musculus [11] = assay: Toxicity in Swiss albino mouse assessed as total RBC count 50 mg/kg, po (reference value: 6.24 +/- 0.51 millions/mm'3); type: organism-based; design: dose 50 mg/kg, route oral; conditions: in vivo
Mus musculus [12] = assay: Toxicity in Swiss albino mouse assessed as total serum triglyceride level 5 mg/kg, po (reference value: 72.43 +/- 8.40 mg/dl); type: organism-based; design: dose 5 mg/kg, route oral; conditions: in vivo
Mus musculus [13] = assay: Toxicity in Swiss albino mouse assessed as total serum total cholesterol level 5 mg/kg, po (reference value: 43.25 +/- 4.04 mg/dl); type: organism-based; design: dose 5 mg/kg, route oral; conditions: in vivo
Mus musculus [14] = assay: Toxicity in Swiss albino mouse assessed as total haemoglobin level 50 mg/kg, po (reference value: 7.54 +/- 1.05 g/dl); type: organism-based; design: dose 50 mg/kg, route oral; conditions: in vivo
Mus musculus [15] = assay: Toxicity in Swiss albino mouse assessed as total SGPT level 5 mg/kg, po (reference value: 8.13 +/- 0.79 U/L); type: organism-based; design: dose 5 mg/kg, route oral; conditions: in vivo
Mus musculus [16] = assay: Toxicity in Swiss albino mouse assessed as body weight at 5 mg/kg, po (reference value: 23.56+/-1.547 g); type: organism-based; design: dose 5 mg/kg, route oral; conditions: in vivo
Mus musculus [17] = assay: Toxicity in Swiss albino mouse assessed as total haemoglobin level 300 mg/kg, po (reference value: 7.54 +/- 1.05 g/dl); type: organism-based; design: dose 300 mg/kg, route oral; conditions: in vivo
Mus musculus [18] = assay: Toxicity in Swiss albino mouse assessed as total serum creatinine level 300 mg/kg, po (reference value: 0.71 +/- 0.14 mg/dl); type: organism-based; design: dose 300 mg/kg, route oral; conditions: in vivo
Mus musculus [19] = assay: Toxicity in Swiss albino mouse assessed as total serum creatinine level 5 mg/kg, po (reference value: 0.71 +/- 0.14 mg/dl); type: organism-based; design: dose 5 mg/kg, route oral; conditions: in vivo
Mus musculus [20] = assay: Toxicity in Swiss albino mouse assessed as body weight at 50 mg/kg, po (reference value: 23.56+/-1.547 g); type: organism-based; design: dose 50 mg/kg, route oral; conditions: in vivo
Mus musculus [21] = assay: Toxicity in Swiss albino mouse assessed as total SGOT level 50 mg/kg, po (reference value: 8.13 +/- 0.79 U/L); type: organism-based; design: dose 50 mg/kg, route oral; conditions: in vivo
Mus musculus [22] = assay: Toxicity in Swiss albino mouse assessed as body weight at 300 mg/kg, po (reference value: 23.56+/-1.547 g); type: organism-based; design: dose 300 mg/kg, route oral; conditions: in vivo
Mus musculus [23] = assay: Toxicity in Swiss albino mouse assessed as total RBC count 5 mg/kg, po (reference value: 6.24 +/- 0.51 millions/mm'3); type: organism-based; design: dose 5 mg/kg, route oral; conditions: in vivo
Mus musculus [24] = assay: Toxicity in Swiss albino mouse assessed as total SGOT level 300 mg/kg, po (reference value: 8.13 +/- 0.79 U/L); type: organism-based; design: dose 300 mg/kg, route oral; conditions: in vivo
Mus musculus [25] = assay: Toxicity in Swiss albino mouse assessed as total serum creatinine level 50 mg/kg, po (reference value: 0.71 +/- 0.14 mg/dl); type: organism-based; design: dose 50 mg/kg, route oral; conditions: in vivo
Mus musculus [26] = assay: Toxicity in Swiss albino mouse assessed as total SGOT level 5 mg/kg, po (reference value: 8.13 +/- 0.79 U/L); type: organism-based; design: dose 5 mg/kg, route oral; conditions: in vivo
Mus musculus [27] = assay: Toxicity in Swiss albino mouse assessed as total serum triglyceride level 300 mg/kg, po (reference value: 72.43 +/- 8.40 mg/dl); type: organism-based; design: dose 300 mg/kg, route oral; conditions: in vivo
Mus musculus [28] = assay: Toxicity in Swiss albino mouse assessed as total serum triglyceride level 50 mg/kg, po (reference value: 72.43 +/- 8.40 mg/dl); type: organism-based; design: dose 50 mg/kg, route oral; conditions: in vivo
[29] = tested on: Mycobacterium tuberculosis; assay: Antitubercular activity against Mycobacterium tuberculosis H37Rv at 500 ug/ml by BACTEC460 radiometric susceptibility assay; type: functional, organism-based

For `C/C(=C\C=N\O)CCCC(C)CCCC(C)CCCC(C)C` (stereo unspecified), the MIC [1] was 25 µg/mL (≈ 80.8 µM).
With `C/C(=C\CO)CCCC(C)CCCC(C)CCCC(C)C` (stereo unspecified) the MIC [1] was 100 µg/mL (≈ 337 µM).
For `C/C(=C\COC=O)CCCC(C)CCCC(C)CCCC(C)C` (stereo unspecified), the MIC [1] was 500 µg/mL (≈ 1540 µM).
In the case of `CCOC(=O)/C=C/CO/N=C/C=C(\C)CCCC(C)CCCC(C)CCCC(C)C` (stereo unspecified), the Activity (Mus musculus [2]) is reported as 14450 /mm3, the Activity (Mus musculus [3]) is reported as 54.91 mg/dL and the Activity (Mus musculus [4]) is reported as 14240 /mm3. For the same compound, the Activity (Mus musculus [5]) was 13460 /mm3, the Activity (Mus musculus [6]) was 5140000 /mm3 and the Activity (Mus musculus [7]) was 62.27 mg/dL. It also gave an Activity (Mus musculus [8]) of 10.06 U/L, an Activity (Mus musculus [9]) of 11.36 U/L and an Activity (Mus musculus [10]) of 6.41 g/dL. For the same compound, the Activity (Mus musculus [11]) was 6580000 /mm3, the Activity (Mus musculus [12]) was 84.31 mg/dL and the Activity (Mus musculus [13]) was 57.67 mg/dL. For the same compound, the Activity (Mus musculus [14]) was 10.09 g/dL, the Activity (Mus musculus [15]) was 11.15 U/L and the Activity (Mus musculus [16]) was 25.41 g. For the same compound, the Activity (Mus musculus [17]) was 5.55 g/dL, the Activity (Mus musculus [18]) was 1.2 mg/dL and the Activity (Mus musculus [19]) was 0.61 mg/dL. For the same compound, the Activity (Mus musculus [20]) was 25.39 g, the Activity (Mus musculus [21]) was 35.44 U/L and the Activity (Mus musculus [22]) was 20.56 g. The Activity (Mus musculus [23]) was 5980000 /mm3, the Activity (Mus musculus [24]) was 41.73 U/L and the Activity (Mus musculus [25]) was 0.59 mg/dL. For the same compound, the Activity (Mus musculus [26]) was 28.03 U/L, the Activity (Mus musculus [27]) was 68.95 mg/dL and the MIC [1] was 15.6 µg/mL (≈ 37 µM). It also gave an Activity (Mus musculus [28]) of 71.9 mg/dL.
For `CC(=O)OC/C=C(\C)CCCC(C)CCCC(C)CCCC(C)C` (stereo unspecified), the MIC [29] was “inactive”.
In the case of `CC(C)CCCC(C)CCCC(C)CCCC1(C)OC1CO` (stereo unspecified), the MIC [29] is reported as “inactive”.
In the case of `C/C(=C\C=O)CCCC(C)CCCC(C)CCCC(C)C` (stereo unspecified), the MIC [1] is reported as 50 µg/mL (≈ 170 µM).
In the case of `CO[C@H]1/C=C/O[C@@]2(C)Oc3c(C)c(O)c4c(O)c(c(/C=N/N5CCN(C)CC5)c(O)c4c3C2=O)NC(=O)/C(C)=C\C=C\[C@H](C)[C@H](O)[C@@H](C)[C@@H](O)[C@@H](C)[C@H](OC(C)=O)[C@@H]1C` [RIFAMPIN], the MIC [1] is reported as 2 µg/mL (≈ 2.43 µM).
`CN[C@@H]1[C@H](O[C@H]2[C@H](O[C@H]3[C@H](O)[C@@H](O)[C@H](N=C(N)N)[C@@H](O)[C@@H]3N=C(N)N)O[C@@H](C)[C@]2(O)C=O)O[C@@H](CO)[C@H](O)[C@H]1O` [STREPTOMYCIN] showed an MIC [1] of 2 µg/mL (≈ 3.44 µM).
`C/C(=C\CBr)CCCC(C)CCCC(C)CCCC(C)C` (stereo unspecified) was tested, and the MIC [29] was “inactive”.
Compound `CCOC(=O)CO/N=C/C=C(\C)CCCC(C)CCCC(C)CCCC(C)C` (stereo unspecified) has an MIC [1] of 500 µg/mL (≈ 1260 µM).
For `COc1cc(/C=C/C(O)=C/C(=O)/C=C/c2ccc(OC/C=C(\C)CCCC(C)CCCC(C)CCCC(C)C)cc2)ccc1OC/C=C(\C)CCCC(C)CCCC(C)CCCC(C)C` (stereo unspecified), the MIC [29] was “inactive”.
`C/C(=C\COC/C=C(\C)CCCC(C)CCCC(C)CCCC(C)C)CCCC(C)CCCC(C)CCCC(C)C` (stereo unspecified) was tested, and the MIC [29] was “inactive”.
In the case of `C/C(=C\CN=[N+]=[N-])CCCC(C)CCCC(C)CCCC(C)C` (stereo unspecified), the MIC [29] is reported as “inactive”.
